# In patent US20150011751A1, “NOVEL TRIAZINE DERIVATIVE” (CARNA BIOSCIENCES, INC., priority 2012, published 2015):
# What was measured:
# Dephosphorylated BTK = Dephosphorylated BTK (Homo sapiens, UniProt Q06187); assay: Test of activity inhibition against dephosphorylated BTK (mobility shift assay)
# BTK = BTK (Homo sapiens, UniProt Q06187); assay: Test of activity inhibition against BTK (mobility shift assay, QuickScout Screening Assist MSA)
# Method: Kinase activity was measured by a mobility shift assay (MSA) method using QuickScout Screening Assist (trademark) MSA (commercially available kit, manufactured by Carna Biosciences, Inc.). FITC-labeled SRCtide peptide supplied with the kit was used as a substrate of a kinase reaction.
# The heights of the respective peaks of the isolated substrate and phosphorylated substrate were designated S and P. Those containing the assay buffer added therein in place of the enzyme solution were measured as a blank.
# Inhibition ratio (%) of a test compound was calculated according to the following equation:
# where A, B, and C represent P/(P+S) of a blank well, P/(P+S) of a control solution well, and P/(P+S) of a well containing the compound added therein, respectively.
# IC50 value was calculated by regression analysis of the inhibition ratio and the test compound concentration (logarithm).
# [1] = system: intracellular BTK (pY223) in Ramos cells; assay: cells; conditions: Homo sapiens, read-out: BTK phosphorylation inhibitory activity
# Method: The supernatant was recovered by a centrifugal operation (at 15,000 rpm for 15 minutes) and the amount of protein was quantitatively determined. The supernatant was mixed with SDS-sample buffer and the mixture was reacted at 95° C. for 5 minutes thereby modifying the protein to obtain a sample solution. […] Thereafter, the protein in the gel was transferred to a PVDF membrane, using an iBlot gel transfer system (Life Technologies Corporation).
# The unreacted secondary antibody was washed with TBST buffer and reacted according to the attached protocol, using ECL Prime Western Blotting Detection System (GE Healthcare Ltd.), and then each band was detected by chemiluminescence using a CCD camera (ATTO, Light-CaptureII). The detected band was digitized by densitometry (ATTO CS Analyzer ver.3.0) and an inhibition ratio was calculated from the intensity of a band in each group on the assumption that luminescence of a band of phosphorylated BTK of the compound no-addition and IgM stimulated group is 100%, whereas, luminescence of a band of phosphorylated BTK of the compound no-addition and IgM non-stimulated group is 0%. Each band of phosphorylated BTK was corrected by the total BTK.
# Thereafter, IgM (Invitrogen, H15100) diluted with the medium was added so that the final concentration becomes 10 μg/mL, followed by incubation at 37° C. for 10 minutes.
# The intracellular BTK autophosphorylation inhibiting activity was indicated with the mark “***” when 70% or more, with the mark “**” when 50% or more and less than 70%, and with the mark “*” when 30% or more and less than 50%.
# Sequence of BTK (Q06187 whole entry): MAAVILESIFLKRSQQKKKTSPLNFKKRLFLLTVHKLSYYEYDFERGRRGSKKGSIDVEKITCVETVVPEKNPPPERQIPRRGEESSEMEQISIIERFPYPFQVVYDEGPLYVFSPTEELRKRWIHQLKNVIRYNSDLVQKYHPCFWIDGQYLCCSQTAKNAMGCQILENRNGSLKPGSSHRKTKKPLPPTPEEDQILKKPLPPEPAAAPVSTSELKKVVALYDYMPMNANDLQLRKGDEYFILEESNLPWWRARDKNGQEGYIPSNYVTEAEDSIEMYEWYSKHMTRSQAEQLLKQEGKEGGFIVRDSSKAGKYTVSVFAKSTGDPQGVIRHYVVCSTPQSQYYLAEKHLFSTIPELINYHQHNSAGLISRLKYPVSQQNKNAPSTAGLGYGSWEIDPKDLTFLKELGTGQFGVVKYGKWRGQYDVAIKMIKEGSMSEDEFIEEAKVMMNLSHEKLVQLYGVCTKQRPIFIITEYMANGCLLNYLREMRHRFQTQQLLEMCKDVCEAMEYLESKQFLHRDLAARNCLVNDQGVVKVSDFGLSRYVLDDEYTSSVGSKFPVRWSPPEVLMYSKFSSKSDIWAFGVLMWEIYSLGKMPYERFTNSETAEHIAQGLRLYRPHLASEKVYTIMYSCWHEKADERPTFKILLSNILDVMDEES
# Sequence of Dephosphorylated BTK (Q06187 whole entry): as above
IC50 (Dephosphorylated BTK) [nM],IC50 (BTK) [nM],SMILES,inhibition at 0.3 µM [1] [%]
4.2,10,"Cc1c(NC(=O)c2ccc(C(C)(C)C)cc2)cccc1-c1ncnc(Nc2ccc(C(=O)N3CCN(C)CC3)cc2)n1 [Example 4, 4-(tert-Butyl)-N-[2-methyl-3-(4-{[4-(4-methylpiperazine-1-carbonyl)phenyl]amino}-1,3,5-triazin-2-yl)phenyl]benzamide]",–
2.5,8.2,"Cc1c(NC(=O)c2ccc(C(C)(C)C)cc2)cccc1-c1ncnc(Nc2ccc(C(=O)N3CCOC(CN)C3)cc2)n1 (stereo not shown) [Example 7, N-{3-[4-({4-[2-(Amino-methyl)morpholine-4-car-bonyl]phenyl}amino)-1,3,5-triazin-2-yl]-2-methylphenyl}-4-(tert-butyl)benzamide]",–
3.5,13.1,"Cc1c(NC(=O)c2ccc(C(C)(C)C)cc2)cccc1-c1ncnc(Nc2ccc(C(=O)NCCN3CCOCC3)cc2)n1 [Example 8, 4-(tert-Butyl)-N-{2-meth-yl-3-[4-({4-[(2-morpho-linoethyl)carbamoyl]phenyl}amino)-1,3,5-triazin-2-yl]phenyl} benzamide]",–
2.1,12.6,"Cc1c(NC(=O)c2ccc(C(C)(C)C)cc2)cccc1-c1ncnc(Nc2ccc(C(=O)N3CCC(O)CC3)cc2)n1 [Example 9, 4-(tert-Butyl)-N-[3-(4-{[4-(4-hydroxypiper-idine-1-carbonyl)phenyl]amino}-1,3,5-triazin-2-yl)-2-methylphen-yl]benzamide]",–
3.2,12.8,"Cc1c(NC(=O)c2ccc(C(C)(C)C)cc2)cccc1-c1ncnc(Nc2ccc(C(=O)N3CCN(CCO)CC3)cc2)n1 [Example 10, 4-(tert-Butyl)-N-{3-[4-({4-[4-(2-hydroxyeth-yl)piperazine-1-carbo-nyl]phenyl}amino)-1,3,5-triazin-2-yl]-2-meth-ylphenyl}benzamide]",–
1.3,–,"Cc1c(NC(=O)c2ccc(C(C)(C)C)cc2)cccc1-c1nc(N)nc(Nc2ccc(C(=O)N3CCOC(CO)C3)cc2)n1 (stereo not shown) [Example 30, N-{3-[4-Amino-6-({4-[2-(hydroxymethyl)morpho-line-4-carbonyl]phe-nyl}amino)-1,3,5-tria-zin-2-yl]-2-methylphe-nyl}-4-(tert-butyl)benz-amide]",> 70
1.5,–,"Cc1c(NC(=O)c2ccc(C(C)(C)C)cc2)cccc1-c1nc(N)nc(Nc2ccc(C(=O)N3CCOCC3CO)cc2)n1 (stereo not shown) [Example 31, N-{3-[4-Amino-6-({4-[3-(hydroxymethyl)morpho-line-4-carbonyl]phe-nyl}amino)-1,3,5-tria-zin-2-yl]-2-methylphe-nyl}-4-(tert-butyl) benzamide]",> 70
0.8,–,"Cc1c(NC(=O)c2ccc(C(C)(C)C)cc2)cccc1-c1nc(N)nc(Nc2ccc(C(=O)N3CCOC(CN)C3)cc2)n1 (stereo not shown) [Example 32, N-{3-[4-Amino-6-({4-[2-(aminomethyl)morpho-line-4-carbonyl]phenyl}amino)-1,3,5-triazin-2-yl]-2-methylphenyl}-4-(tert-butyl)benz-amide]",> 70
–,–,"Cc1c(-c2nc(N)nc(Nc3ccc(C(=O)N4CCOCC4)cc3)n2)cccc1N1Cc2cc(C(C)(C)C)ccc2C1=O [Example 33, 2-[3-(4-Amino-6-{[4-(morpholine-4-carbonyl)phenyl]amino}-1,3,5-triazin-2-yl)-2-methylphenyl]-5-(tert-butyl)isoindolin-1-one]",> 70
1,–,"CN(C)CCCOc1ccc(Nc2nc(N)nc(-c3cccc(NC(=O)c4ccc(C(C)(C)C)cc4)c3CO)n2)cc1 [Example 70, N-{3-[4-Amino-6-({4-[3-(dimethylamino)prop-oxy]phenyl}amino)-1,3,5-triazin-2-yl]-2-(hydroxy-methyl)phenyl}-4-(tert-butyl)benzamide]",> 70
0.7,–,"Cn1cc(Nc2nc(N)nc(-c3cccc(N4CCc5cc(C6CC6)cc(F)c5C4=O)c3CO)n2)cn1 [Example 180, 2-(3-{4-Amino-6-[(1-methyl-1H-pyrazol-4-yl)amino]-1,3,5-triazin-2-yl}-2-(hydroxymeth-yl)phenyl)-6-cyclopro-pyl-8-fluoro-3,4-dihy-droisoquinolin-1(2H)-one]",> 70
1.1,–,"Cn1ccc(Nc2nc(N)nc(-c3cccc(N4CCc5cc(C6CC6)cc(F)c5C4=O)c3CO)n2)c1 [Example 213, 2-(3-{4-Amino-6-[(1-meth-yl-1H-pyrrol-3-yl)amino]-1,3,5-triazin-2-yl}-2-(hydroxymethyl)phenyl)-6-cyclopropyl-8-fluoro-3,4-dihydro-isoquinolin-1(2H)-one]",> 70
0.3,–,"Nc1nc(Nc2cnn(CC3CC3)c2)nc(-c2cccc(N3CCc4cc(C5CC5)cc(F)c4C3=O)c2CO)n1 [Example 214, 2-[3-(4-Amino-6-{[1-(cyclo-propylmethyl)-1H-pyrazol-4-yl]amino}-1,3,5-triazin-2-yl)-2-(hydroxymethyl)phenyl]-6-cyclopropyl-8-fluoro-3,4-dihydroisoquinolin-1(2H)-one]",> 70
1.3,–,"NC(=O)Cn1cc(Nc2nc(N)nc(-c3cccc(N4CCc5cc(C6CC6)cc(F)c5C4=O)c3CO)n2)cn1 [Example 266, 2-[4-({4-Amino-6-[3-(6-cyclopropyl-8-fluoro-1-oxo-3,4-dihydroiso-quinolin-2(1H)-yl)-2-(hydroxymethyl)phenyl]-1,3,5-triazin-2-yl}amino)-1H-pyrazol-1-yl]acetamide]",–
1.5,–,"Nc1nc(Nc2cc3n(c2)CCNC3=O)nc(-c2cccc(N3CCc4cc(C5CC5)cc(F)c4C3=O)c2CO)n1 [Example 267, 2-(3-{4-Amino-6-[(1-oxo-1,2,3,4-tetrahydro-pyrrolo[1,2-a]pyrazin-7-yl)amino]-1,3,5-tri-azin-2-yl}-2-(hydroxy-methyl)phenyl)-6-cyclo-propyl-8-fluoro-3,4-dihydroisoquinolin-1 (2H)-one]",–
1.2,–,"CN1CCn2cc(Nc3nc(N)nc(-c4cccc(N5CCc6cc(C7CC7)cc(F)c6C5=O)c4CO)n3)cc2C1=O [Example 268, 2-(3-{4-Amino-6-[(2-meth-yl-1-oxo-1,2,3,4-tetra-hydropyrrolo[1,2-a]pyrazin-7-yl)amino]-1,3,5-triazin-2-yl}-2-(hydroxymethyl)phe-nyl)-6-cyclopropyl-8-fluoro-3,4-dihydroisoquinolin-1(2H)-one]",–
0.8,–,"Cn1cc(Nc2nc(N)nc(-c3cccc(N4CCc5cc(C6CC6)cc(F)c5C4=O)c3CO)n2)cc1C#N [Example 269, 4-({4-Amino-6-[3-(6-cyclo-propyl-8-fluoro-1-oxo-3,4-dihydroisoquino-lin-2(1H)-yl)-2-(hy-droxymethyl)phenyl]-1,3,5-triazin-2-yl}ami-no)-1-methyl-1H-pyrrole-2-carbonitrile]",–
0.7,–,"CC(C1CC1)n1cc(Nc2nc(N)nc(-c3cccc(N4CCc5cc(C6CC6)cc(F)c5C4=O)c3CO)n2)cn1 (stereo not shown) [Example 270, 2-[3-(4-Amino-6-{[1-(1-cyclopropylethyl)-1H-pyrazol-4-yl]amino}-1,3,5-triazin-2-yl)-2-(hydroxymethyl)phe-nyl]-6-cyclopropyl-8-fluoro-3,4-dihydroiso-quinolin-1(2H)-one]",–
0.4,–,"CCC(C)n1cc(Nc2nc(N)nc(-c3cccc(N4CCc5cc(C6CC6)cc(F)c5C4=O)c3CO)n2)cn1 (stereo not shown) [Example 271, 2-[3-(4-Amino-6-{[1-(sec-butyl)-1H-pyrazol-4-yl]amino}-1,3,5-tri-azin-2-yl)-2-(hydroxy-methyl)phenyl]-6-cyclo-propyl-8-fluoro-3,4-dihydroisoquinolin-1 (2H)-one]",–
1.1,–,"CN(C)C(=O)c1cc(Nc2nc(N)nc(-c3cccc(N4CCc5cc(C6CC6)cc(F)c5C4=O)c3CO)n2)cn1C [Example 272, 4-({4-Amino-6-[3-(6-cyclo-propyl-8-fluoro-1-oxo-3,4-dihydroisoquino-lin-2(1H)-yl)-2-(hydroxy-methyl)phenyl]-1,3,5-triazin-2-yl}ami-no)-N,N,1-trimethyl-1H-pyrrole-2-carboxamide]",–
2.4,–,"CC1(Cn2cc(Nc3nc(N)nc(-c4cccc(N5CCc6cc(C7CC7)cc(F)c6C5=O)c4CO)n3)cn2)CC1 [Example 273, 2-{3-[4-Amino-6-({1-[(1-methylcyclopropyl)methyl]-1H-pyrazol-4-yl}amino)-1,3,5-triazin-2-yl]-2-(hydroxymeth-yl)phenyl}-6-cyclo-propyl-8-fluoro-3,4-di-hydroisoquinolin-1(2H)-one]",–
1,–,"C=CCn1cc(Nc2nc(N)nc(-c3cccc(N4CCc5cc(C6CC6)cc(F)c5C4=O)c3CO)n2)cn1 [Example 274, 2-(3-{4-[(1-Allyl-1H-pyrazol-4-yl)amino]-6-amino-1,3,5-triazin-2-yl}-2-(hydroxymethyl)phenyl)-6-cyclopropyl-8-fluoro-3,4-dihydro-isoquinolin-1(2H)-one]",–
1.7,–,"Nc1nc(Nc2cnn(CC(F)F)c2)nc(-c2cccc(N3CCc4cc(C5CC5)cc(F)c4C3=O)c2CO)n1 [Example 275, 2-[3-(4-Amino-6-{[1-(2,2-difluoroethyl)-1H-pyrazol-4-yl]amino}-1,3,5-triazin-2-yl)-2-(hydroxymethyl)phenyl]-6-cyclopropyl-8-fluoro-3,4-dihydroisoquinolin-1(2H)-one]",–
3.3,–,"Nc1nc(Nc2ccn(C3CC3)c2)nc(-c2cccc(N3CCc4cc(C5CC5)cc(F)c4C3=O)c2CO)n1 [Example 277, 2-(3-{4-Amino-6-[(1-cyclo-propyl-1H-pyrrol-3-yl)amino]-1,3,5-tri-azin-2-yl}-2-(hydroxy-methyl)phenyl)-6-cyclo-propyl-8-fluoro-3,4-dihydroisoquinolin-1(2H)-one]",–
2.2,–,"CC(C)(O)Cn1cc(Nc2nc(N)nc(-c3cccc(N4CCc5cc(C6CC6)cc(F)c5C4=O)c3CO)n2)cn1 [Example 278, 2-[3-(4-Amino-6-{[1-(2-hydroxy-2-methylpro-pyl)-1H-pyrazol-4-yl]amino}-1,3,5-triazin-2-yl)-2-(hydroxymethyl)phenyl]-6-cyclopropyl-8-fluoro-3,4-dihydro-isoquinolin-1(2H)-one]",–
